Target: T1, CK1α (Homo sapiens, UniProt P48729)
T1 construct: HEK293 clonal lines with CRISPR KI HiBiT tag on CSNK1A1
Test: CK1α NanoBit Assay (HiBiT-tagged CSNK1A1, HEK293 clonal lines)
Assay type: cell-based
Conditions: HEK293 HiBiT-CSNK1A1/LgBiT cells, 24 h incubation
Experimental: HEK293 clonal lines with CRISPR KI HiBiT tag on CSNK1A1 and stably expressing LgBiT protein were obtained from Promega (Madison, WI). […] Cells were incubated at 37° C., 5% CO2 for 24 hours and then signal was read on a Pherastar FSX using “LUM plus” optic module.
Data analysis was performed in Scinamic (Scinamic, Cambridge, MA). Luminescence response (R) was calculated by the formula: response=100*(S−N)/(P−N) where S is the signal of the well, N and P the mean negative and positive control values respectively of the same plate.
DC50 data are reported in Table 2 for compounds in Table 1. In Table 2 below, According to the code, A represents a DC50 value of ≤0.1 μM, B represents a DC50 value>0.1 μM and ≤1 μM, C represents an DC50 value>1 μM.

T1 sequence (P48729 whole entry): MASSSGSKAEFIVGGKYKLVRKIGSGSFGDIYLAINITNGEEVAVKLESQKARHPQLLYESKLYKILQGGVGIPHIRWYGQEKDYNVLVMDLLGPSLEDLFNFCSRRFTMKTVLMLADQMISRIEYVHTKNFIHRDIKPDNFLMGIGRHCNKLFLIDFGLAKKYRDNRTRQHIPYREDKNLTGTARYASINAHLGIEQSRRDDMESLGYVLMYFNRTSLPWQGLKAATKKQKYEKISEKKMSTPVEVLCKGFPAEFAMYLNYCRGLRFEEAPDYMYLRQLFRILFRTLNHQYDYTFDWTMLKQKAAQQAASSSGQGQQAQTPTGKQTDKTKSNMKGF
T1 sequence (Q96SW2 whole entry, further chain): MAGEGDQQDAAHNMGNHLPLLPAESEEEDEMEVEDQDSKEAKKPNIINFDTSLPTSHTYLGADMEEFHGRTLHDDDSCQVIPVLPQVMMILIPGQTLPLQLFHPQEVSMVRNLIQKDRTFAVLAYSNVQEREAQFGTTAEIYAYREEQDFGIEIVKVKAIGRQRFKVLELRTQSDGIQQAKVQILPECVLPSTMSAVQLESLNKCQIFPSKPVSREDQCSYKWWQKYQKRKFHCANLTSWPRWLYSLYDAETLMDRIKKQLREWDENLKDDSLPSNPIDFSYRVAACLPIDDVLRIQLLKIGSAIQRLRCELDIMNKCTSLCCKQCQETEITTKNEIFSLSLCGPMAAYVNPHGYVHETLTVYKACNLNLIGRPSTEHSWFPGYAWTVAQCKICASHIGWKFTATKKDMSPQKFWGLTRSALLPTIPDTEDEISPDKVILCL
T1 sequence (Q16531 2-1140 partner limits assumed): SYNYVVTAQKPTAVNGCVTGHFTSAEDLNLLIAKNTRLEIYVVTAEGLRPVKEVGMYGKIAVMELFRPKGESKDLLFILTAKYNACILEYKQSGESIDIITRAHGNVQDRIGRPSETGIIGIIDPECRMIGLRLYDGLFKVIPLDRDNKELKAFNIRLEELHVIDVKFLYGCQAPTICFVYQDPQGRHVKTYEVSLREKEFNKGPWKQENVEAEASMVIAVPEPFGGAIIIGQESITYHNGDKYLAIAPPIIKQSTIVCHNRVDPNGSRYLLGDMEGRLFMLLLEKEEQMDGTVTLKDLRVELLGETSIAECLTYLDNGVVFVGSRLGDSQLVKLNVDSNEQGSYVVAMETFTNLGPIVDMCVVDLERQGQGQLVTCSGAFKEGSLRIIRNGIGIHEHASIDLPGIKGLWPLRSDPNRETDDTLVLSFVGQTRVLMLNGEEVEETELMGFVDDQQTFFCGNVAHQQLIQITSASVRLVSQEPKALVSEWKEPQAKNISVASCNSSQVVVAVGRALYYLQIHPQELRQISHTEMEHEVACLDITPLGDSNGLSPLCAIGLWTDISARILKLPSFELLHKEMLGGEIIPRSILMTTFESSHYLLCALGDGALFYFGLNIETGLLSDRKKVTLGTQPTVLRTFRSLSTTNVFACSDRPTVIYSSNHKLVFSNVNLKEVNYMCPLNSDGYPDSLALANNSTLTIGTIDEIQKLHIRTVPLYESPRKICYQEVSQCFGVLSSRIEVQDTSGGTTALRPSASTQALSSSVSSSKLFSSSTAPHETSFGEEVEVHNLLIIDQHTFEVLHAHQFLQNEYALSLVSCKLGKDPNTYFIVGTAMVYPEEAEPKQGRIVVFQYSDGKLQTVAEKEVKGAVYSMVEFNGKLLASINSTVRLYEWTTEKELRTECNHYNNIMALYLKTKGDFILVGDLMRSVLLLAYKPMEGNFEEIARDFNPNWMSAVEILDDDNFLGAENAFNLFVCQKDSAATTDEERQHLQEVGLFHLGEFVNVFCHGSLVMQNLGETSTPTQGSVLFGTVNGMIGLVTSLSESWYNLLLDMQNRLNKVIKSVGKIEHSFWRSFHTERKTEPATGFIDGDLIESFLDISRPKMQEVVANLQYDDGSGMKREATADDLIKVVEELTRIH

O=C1CC[C@@H](N2Cc3cc(NC(=O)N4c5ccccc5C[C@@H]4C(F)(F)F)ccc3C2=O)C(=O)N1 (single isomer, unassigned) [Compound 360]
DC50: < 0.1 µM

O=C1CC[C@H](N2Cc3cc(NC(=O)N4c5ccccc5C[C@H]4C(F)(F)F)ccc3C2=O)C(=O)N1 (single isomer, unassigned) [Compound 361]
DC50: < 0.1 µM

O=C1CCC(N2Cc3cc(NC(=O)N4CCc5ccccc5C4)ccc3C2=O)C(=O)N1 (centres unmarked) [Compound 104, N-(2-(2,6-dioxopiperidin-3-yl)-1-oxoisoindolin-5-yl)-3,4-dihydroisoquinoline-2(1H)-carboxamide]
DC50: < 0.1 µM

O=C1CCC(N2Cc3cc(NC(=O)N4CCCc5ccccc54)ccc3C2=O)C(=O)N1 (centres unmarked) [Compound 107, N-(2-(2,6-dioxopiperidin-3-yl)-1-oxoisoindolin-5-yl)-3,4-dihydroquinoline-1(2H)-carboxamide]
DC50: 0.1 to 1 µM

O=C1CCC(N2Cc3cc(NC(=O)N4CCc5ncccc54)ccc3C2=O)C(=O)N1 (centres unmarked) [Compound 108, N-(2-(2,6-dioxopiperidin-3-yl)-1-oxoisoindolin-5-yl)-2,3-dihydro-1H-pyrrolo[3,2-b]pyridine-1-carboxamide]
DC50: 0.1 to 1 µM

O=C1CCC(N2Cc3cc(NC(=O)N4CCc5cnccc54)ccc3C2=O)C(=O)N1 (centres unmarked) [Compound 110, N-(2-(2,6-dioxopiperidin-3-yl)-1-oxoisoindolin-5-yl)-2,3-dihydro-1H-pyrrolo[3,2-c]pyridine-1-carboxamide]
DC50: 0.1 to 1 µM

Cc1cc2c(cn1)CCN2C(=O)Nc1ccc2c(c1)CN(C1CCC(=O)NC1=O)C2=O (centres unmarked) [Compound 113]
DC50: > 1 µM

O=C1CCC(N2Cc3cc(NC(=O)N4CCCc5ccc(C(F)(F)F)cc54)ccc3C2=O)C(=O)N1 (centres unmarked) [Compound 114]
DC50: < 0.1 µM

O=C1CCC(N2Cc3cc(NC(=O)N4CCCc5ccc(F)cc54)ccc3C2=O)C(=O)N1 (centres unmarked) [Compound 116]
DC50: < 0.1 µM

Cc1cc(C)c2c(n1)CN(C(=O)Nc1ccc3c(c1)CN(C1CCC(=O)NC1=O)C3=O)C2 (centres unmarked) [Compound 118]
DC50: < 0.1 µM

CC1CN(C(=O)Nc2ccc3c(c2)CN(C2CCC(=O)NC2=O)C3=O)c2ccccc21 (centres unmarked) [Compound 119]
DC50: < 0.1 µM

CC1CCc2ccccc2N1C(=O)Nc1ccc2c(c1)CN(C1CCC(=O)NC1=O)C2=O (centres unmarked) [Compound 120]
DC50: 0.1 to 1 µM

O=C1CCC(N2Cc3cc(NC(=O)N4Cc5cccnc5C4)ccc3C2=O)C(=O)N1 (centres unmarked) [Compound 121]
DC50: 0.1 to 1 µM

Cc1cccc2c1CCCN2C(=O)Nc1ccc2c(c1)CN(C1CCC(=O)NC1=O)C2=O (centres unmarked) [Compound 122]
DC50: 0.1 to 1 µM

O=C1CCC(N2Cc3cc(NC(=O)N4c5ccccc5C[C@@H]4CO)ccc3C2=O)C(=O)N1 (some centres unmarked) [Compound 125]
DC50: < 0.1 µM

N#Cc1cccc2c1CCCN2C(=O)Nc1ccc2c(c1)CN(C1CCC(=O)NC1=O)C2=O (centres unmarked) [Compound 126]
DC50: > 1 µM

O=C1CCC(N2Cc3cc(NC(=O)N4CCC(C(F)(F)F)c5ccccc54)ccc3C2=O)C(=O)N1 (centres unmarked) [Compound 127]
DC50: < 0.1 µM

C[C@@H]1C[C@H](C)c2ccccc2N1C(=O)Nc1ccc2c(c1)CN(C1CCC(=O)NC1=O)C2=O (some centres unmarked) [Compound 128]
DC50: 0.1 to 1 µM

O=C1CCC(N2Cc3cc(NC(=O)N4CCCc5ccc(C(F)F)cc54)ccc3C2=O)C(=O)N1 (centres unmarked) [Compound 129]
DC50: < 0.1 µM

O=C1CCC(N2Cc3cc(NC(=O)N4CCc5ccccc5C4C(F)(F)F)ccc3C2=O)C(=O)N1 (centres unmarked) [Compound 130]
DC50: < 0.1 µM

O=C1CCC(N2Cc3cc(NC(=O)N4CCCc5c(F)cccc54)ccc3C2=O)C(=O)N1 (centres unmarked) [Compound 131]
DC50: 0.1 to 1 µM

N#Cc1ccc2c(c1)CN(C(=O)Nc1ccc3c(c1)CN(C1CCC(=O)NC1=O)C3=O)C2 (centres unmarked) [Compound 133]
DC50: < 0.1 µM

COc1cccc2c1CN(C(=O)Nc1ccc3c(c1)CN(C1CCC(=O)NC1=O)C3=O)C2 (centres unmarked) [Compound 134]
DC50: < 0.1 µM

O=C1CCC(N2Cc3cc(NC(=O)N4Cc5ccccc5C5(CC5)C4)ccc3C2=O)C(=O)N1 (centres unmarked) [Compound 136]
DC50: < 0.1 µM

CC1Cc2ccccc2N1C(=O)Nc1ccc2c(c1)CN(C1CCC(=O)NC1=O)C2=O (centres unmarked) [Compound 138]
DC50: < 0.1 µM

Cc1cccc2c1N(C(=O)Nc1ccc3c(c1)CN(C1CCC(=O)NC1=O)C3=O)CCC2 (centres unmarked) [Compound 139]
DC50: 0.1 to 1 µM

Cc1ccc2c(c1)CCCN2C(=O)Nc1ccc2c(c1)CN(C1CCC(=O)NC1=O)C2=O (centres unmarked) [Compound 140]
DC50: < 0.1 µM

O=C1CCC(N2Cc3cc(NC(=O)N4CCCc5cc(F)ccc54)ccc3C2=O)C(=O)N1 (centres unmarked) [Compound 141]
DC50: < 0.1 µM

CC1(C)CCN(C(=O)Nc2ccc3c(c2)CN(C2CCC(=O)NC2=O)C3=O)c2ccccc21 (centres unmarked) [Compound 143]
DC50: < 0.1 µM

O=C1CCC(N2Cc3cc(NC(=O)N4Cc5ccncc5C4)ccc3C2=O)C(=O)N1 (centres unmarked) [Compound 144]
DC50: 0.1 to 1 µM

O=C1CCC(N2Cc3cc(NC(=O)N4CCCc5ncccc54)ccc3C2=O)C(=O)N1 (centres unmarked) [Compound 145]
DC50: > 1 µM

O=C1CCC(N2Cc3cc(NC(=O)N4CCCc5cccnc54)ccc3C2=O)C(=O)N1 (centres unmarked) [Compound 146]
DC50: 0.1 to 1 µM

Cc1ccc2c(c1)N(C(=O)Nc1ccc3c(c1)CN(C1CCC(=O)NC1=O)C3=O)CCC2 (centres unmarked) [Compound 149]
DC50: 0.1 to 1 µM

N#Cc1ccc2c(c1)CCCN2C(=O)Nc1ccc2c(c1)CN(C1CCC(=O)NC1=O)C2=O (centres unmarked) [Compound 150]
DC50: 0.1 to 1 µM

O=C1CCC(N2Cc3cc(NC(=O)N4CCc5ccncc5C4)ccc3C2=O)C(=O)N1 (centres unmarked) [Compound 151]
DC50: > 1 µM

CC1Cc2ccccc2N(C(=O)Nc2ccc3c(c2)CN(C2CCC(=O)NC2=O)C3=O)C1 (centres unmarked) [Compound 153]
DC50: < 0.1 µM

CC(C)(C)C1Cc2ccccc2N(C(=O)Nc2ccc3c(c2)CN(C2CCC(=O)NC2=O)C3=O)C1 (centres unmarked) [Compound 154]
DC50: < 0.1 µM

CC(C)c1cccc2c1N(C(=O)Nc1ccc3c(c1)CN(C1CCC(=O)NC1=O)C3=O)CCC2 (centres unmarked) [Compound 155]
DC50: 0.1 to 1 µM

CC1(C)c2ccccc2CCN1C(=O)Nc1ccc2c(c1)CN(C1CCC(=O)NC1=O)C2=O (centres unmarked) [Compound 156]
DC50: > 1 µM

O=C1CCC(N2Cc3cc(NC(=O)N4CCCc5cccc(F)c54)ccc3C2=O)C(=O)N1 (centres unmarked) [Compound 157]
DC50: 0.1 to 1 µM

O=C1CCC(N2Cc3cc(NC(=O)N4CCCc5cccc(Cl)c54)ccc3C2=O)C(=O)N1 (centres unmarked) [Compound 158]
DC50: 0.1 to 1 µM

O=C1CCC(N2Cc3cc(NC(=O)N4CCCc5cccc(OC(F)F)c54)ccc3C2=O)C(=O)N1 (centres unmarked) [Compound 159]
DC50: 0.1 to 1 µM

O=C1CCC(N2Cc3cc(NC(=O)N4CCCc5c4cccc5C(F)(F)F)ccc3C2=O)C(=O)N1 (centres unmarked) [Compound 160]
DC50: 0.1 to 1 µM

O=C1CCC(N2Cc3cc(NC(=O)N4CC(n5cccn5)Cc5ccccc54)ccc3C2=O)C(=O)N1 (centres unmarked) [Compound 161]
DC50: 0.1 to 1 µM

CC1(C)Cc2ccccc2N(C(=O)Nc2ccc3c(c2)CN(C2CCC(=O)NC2=O)C3=O)C1 (centres unmarked) [Compound 165]
DC50: < 0.1 µM

CC1Cc2ccccc2C(C)N1C(=O)Nc1ccc2c(c1)CN(C1CCC(=O)NC1=O)C2=O (centres unmarked) [Compound 166]
DC50: < 0.1 µM

C[C@H]1c2ccccc2CN1C(=O)Nc1ccc2c(c1)CN(C1CCC(=O)NC1=O)C2=O (some centres unmarked) [Compound 167]
DC50: < 0.1 µM

O=C1CCC(N2Cc3cc(NC(=O)N4Cc5ccc(C(F)F)cc5C4)ccc3C2=O)C(=O)N1 (centres unmarked) [Compound 168]
DC50: < 0.1 µM

C[C@@H]1c2ccccc2CN1C(=O)Nc1ccc2c(c1)CN(C1CCC(=O)NC1=O)C2=O (some centres unmarked) [Compound 170]
DC50: < 0.1 µM

C[C@H]1c2ccccc2[C@H](C)N1C(=O)Nc1ccc2c(c1)CN(C1CCC(=O)NC1=O)C2=O (some centres unmarked) [Compound 172]
DC50: < 0.1 µM

— patent publication US20250171420A1 (Monte Rosa Therapeutics, Inc., priority 2022, published 2025)
